# Source: patent US11407757B2, “Heterocycle compounds as Tyro3, Axl and MerTK (TAM) family of receptor tyrosine kinase inhibitors” (Development Center for Biotechnology, priority 2017, dated 2022)
# Molecular target: Axl kinase (Homo sapiens (Human), UniProt P30530)
# Experiment: Axl kinase assay (AlphaScreen)
# Format: biochemical
# Conditions: activity level class
# Sequence of Axl kinase (P30530 26-894): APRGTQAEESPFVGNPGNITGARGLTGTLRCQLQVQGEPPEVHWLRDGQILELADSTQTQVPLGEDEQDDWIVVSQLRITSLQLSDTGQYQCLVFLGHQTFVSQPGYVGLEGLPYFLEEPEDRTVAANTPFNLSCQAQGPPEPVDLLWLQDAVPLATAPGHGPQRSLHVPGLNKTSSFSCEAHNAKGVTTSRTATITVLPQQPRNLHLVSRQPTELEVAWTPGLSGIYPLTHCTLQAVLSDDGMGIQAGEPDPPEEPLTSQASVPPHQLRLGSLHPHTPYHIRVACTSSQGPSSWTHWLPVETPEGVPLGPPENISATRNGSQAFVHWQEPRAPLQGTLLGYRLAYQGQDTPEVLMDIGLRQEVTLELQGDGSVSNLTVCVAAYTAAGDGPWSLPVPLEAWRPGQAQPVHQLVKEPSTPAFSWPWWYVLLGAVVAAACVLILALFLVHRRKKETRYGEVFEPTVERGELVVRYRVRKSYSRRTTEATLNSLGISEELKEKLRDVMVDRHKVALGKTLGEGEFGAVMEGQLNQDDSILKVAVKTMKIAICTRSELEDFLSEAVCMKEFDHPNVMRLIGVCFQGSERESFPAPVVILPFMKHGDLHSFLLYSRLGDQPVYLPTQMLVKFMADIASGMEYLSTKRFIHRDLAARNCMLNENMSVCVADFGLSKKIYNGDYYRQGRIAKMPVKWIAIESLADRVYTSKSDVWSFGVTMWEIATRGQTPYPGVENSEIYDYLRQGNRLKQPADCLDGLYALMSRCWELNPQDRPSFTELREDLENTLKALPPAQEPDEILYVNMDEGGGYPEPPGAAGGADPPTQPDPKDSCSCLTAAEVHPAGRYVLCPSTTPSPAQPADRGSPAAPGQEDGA
row,SMILES,IC50
1,"COCCOc1nc(Nc2ccc(CN3CCN(C)CC3)cc2)nc2[nH]cc(-c3ccc(NS(=O)(=O)c4cc(F)ccc4F)cc3)c12 [Compound 1, 2,5-difluoro-N-(4-(4-(2-methoxyethoxy)-2-((4-((4-methylpiperazin-1-yl)methyl)phenyl)amino)-7H-pyrrolo[2,3-d]pyrimidin-5-yl)phenyl)benzene-sulfonamide]",< 0.03 µM
2,"COCCOc1nc(Nc2ccc(CN3CCC(C)CC3)cc2)nc2[nH]cc(-c3ccc(NS(=O)(=O)c4cc(F)ccc4F)cc3)c12 [Compound 3, 2,5-difluoro-N-(4-(4-(2-methoxyethoxy)-2-((4-((4-methylpiperidin-1-yl)methyl)phenyl)amino)-7H-pyrrolo[2,3-d]pyrimidin-5-yl)phenyl)benzene-sulfonamide]",< 0.03 µM
3,"COc1nc(Nc2ccc(CN3CCC(C)CC3)cc2)nc2[nH]cc(-c3ccc(NS(C)(=O)=O)cc3)c12 [Compound 4, N-(4-(4-methoxy-2-((4-((4-methylpiperidin-1-yl)methyl)phenyl)amino)-7H-pyrrolo[2,3-d]pyrimidin-5-yl)phenyl)methane-sulfonamide]",< 0.03 µM
4,"COc1nc(Nc2ccc(CN3CCC(C)CC3)cc2)nc2[nH]cc(-c3ccc(S(=O)(=O)N(C)C)cc3)c12 [Compound 5, 4-(4-methoxy-2-((4-((4-methylpiperidin-1-yl)methyl)phenyl)amino)-7H-pyrrolo[2,3-d]pyrimidin-5-yl)-N,N-dimethylbenzene-sulfonamide]",< 0.03 µM
5,"COc1nc(Nc2ccc(CN3CCN(C)CC3)cc2)nc2[nH]cc(-c3ccc(O)cc3)c12 [Compound 17, 4-(4-methoxy-2-((4-((4-methylpiperazin-1-yl)methyl)phenyl)amino)-7H-pyrrolo [2,3-d]pyrimidin-5-yl)phenol]",< 0.03 µM
6,"COc1nc(Nc2ccc(CN3CCC(C)CC3)cc2)nc2[nH]cc(-c3ccc(O)cc3)c12 [Compound 28, 4-(4-methoxy-2-((4-((4-methylpiperidin-1-yl)methyl)phenyl)amino)-7H-pyrrolo[2,3-d]pyrimidin-5-yl)phenol]",< 0.03 µM
7,"COc1nc(Nc2ccc(CN3CCN(C)CC3)cc2)nc2[nH]cc(-c3ccc(F)cc3)c12 [Compound 38, 5-(4-fluorophenyl)-4-methoxy-N-(4-((4-methylpiperazin-1-yl)methyl)phenyl)-7H-pyrrolo[2,3-d]pyrimidin-2-amine]",< 0.03 µM
8,"CCN1CCN(Cc2ccc(Nc3nc(OC)c4c(-c5ccc(O)cc5)c[nH]c4n3)cc2)CC1 [Compound 48, 4-(2-((4-((4-ethylpiperazin-1-yl)methyl)phenyl)amino)-4-methoxy-7H-pyrrolo[2,3-d]pyrimidin-5-yl)phenol]",< 0.03 µM
9,"CN1CCN(Cc2ccc(Nc3nc(OCC4CCCO4)c4c(-c5ccc(F)cc5F)c[nH]c4n3)cc2)CC1 (stereo not drawn) [Compound 52, 5-(2,4-difluorophenyl)-N-(4-((4-methylpiperazin-1-yl)methyl)phenyl)-4-((tetrahydrofuran-2-yl)methoxy)-7H-pyrrolo[2,3-d] pyrimidin-2-amine]",< 0.03 µM
10,"CCNc1nc(Nc2ccc(CN3CCN(C)CC3)cc2)nc2[nH]cc(-c3ccc(F)cc3F)c12 [Compound 54, 5-(2,4-difluorophenyl)-N4-ethyl-N2-(4-((4-methylpiperazin-1-yl)methyl)phenyl)-7H-pyrrolo[2,3-d] pyrimidine-2,4-diamine]",< 0.03 µM
11,"CN1CCN(Cc2ccc(Nc3nc(OC4CCCC4)c4c(-c5ccc(F)cc5F)c[nH]c4n3)cc2)CC1 [Compound 55, 4-(cyclopentyloxy)-5-(2,4-difluorophenyl)-N-(4-((4-methylpiperazin-1-yl)methyl)phenyl)-7H-pyrrolo[2,3-d]pyrimidin-2-amine]",< 0.03 µM
12,"COCC(C)Oc1nc(Nc2ccc(CN3CCN(C)CC3)cc2)nc2[nH]cc(-c3ccc(F)cc3F)c12 (stereo not drawn) [Compound 63, 5-(2,4-difluorophenyl)-4-((1-methoxypropan-2-yl)oxy)-N-(4-((4-methylpiperazin-1-yl)methyl)phenyl)-7H-pyrrolo[2,3-d]pyrimidin-2-amine]",< 0.03 µM
13,"CC(C)Oc1nc(Nc2ccc(CN3CCN(C)CC3)cc2)nc2[nH]cc(-c3ccc(F)cc3F)c12 [Compound 69, 5-(2,4-difluorophenyl)-4-isopropoxy-N-(4-((4-methylpiperazin-1-yl)methyl)phenyl)-7H-pyrrolo[2,3-d]pyrimidin-2-amine]",< 0.03 µM
14,"CN1CCN(Cc2ccc(Nc3nc(NC4CCOCC4)c4c(-c5ccc(F)cc5F)c[nH]c4n3)cc2)CC1 [Compound 75, 5-(2,4-difluorophenyl)-N2-(4-((4-methylpiperazin-1-yl)methyl)phenyl)-N4-(tetrahydro-2H-pyran-4-yl)-7H-pyrrolo[2,3-d]pyrimidine-2,4-diamine]",< 0.03 µM
15,"CN1CCN(Cc2ccc(Nc3nc(OCC4CCCO4)c4c(-c5ccc(F)c(Cl)c5)c[nH]c4n3)cc2)CC1 (stereo not drawn) [Compound 77, 5-(3-chloro-4-fluorophenyl)-N-(4-((4-methylpiperazin-1-yl)methyl)phenyl)-4-((tetrahydrofuran-2-yl)methoxy)-7H-pyrrolo[2,3-d]pyrimidin-2-amine]",< 0.03 µM
16,"COCCOc1nc(Nc2ccc(CN3CCN(C)CC3)cc2)nc2[nH]cc(-c3ccc(S(=O)(=O)N(C)C)cc3)c12 [Compound 79, 4-(4-(2-methoxyethoxy)-2-((4-((4-methylpiperazin-1-yl)methyl)phenyl)amino)-7H-pyrrolo[2,3-d]pyrimidin-5-yl)-N,N-dimethylbenzene-sulfonamide]",< 0.03 µM
17,"COCCOc1nc(Nc2ccc(CN(C)C)cc2)nc2[nH]cc(-c3ccc(F)cc3F)c12 [Compound 80, 5-(2,4-difluorophenyl)-N-(4-((dimethylamino)methyl)phenyl)-4-(2-methoxyethoxy)-7H-pyrrolo[2,3-d]pyrimidin-2-amine]",< 0.03 µM

# Further lines, results first:
row,IC50,SMILES
1,< 0.03 µM,"COCCOc1nc(Nc2ccc(CN3CCN(C)CC3)cc2)nc2[nH]cc(-c3ccc(OCc4cc(C)ccn4)cc3F)c12 [Compound 9, 5-(2-fluoro-4-((4-methylpyridin-2-yl)methoxy)phenyl)-4-(2-methoxyethoxy)-N-(4-((4-methylpiperazin-1-yl)methyl)phenyl)-7H-pyrrolo[2,3-d]pyrimidin-2-amine]"
2,< 0.03 µM,"COCCOc1nc(Nc2ccc(CN3CCN(C)CC3)cc2)nc2[nH]cc(-c3ccc(OCc4ncccc4C)cc3F)c12 [Compound 11, 5-(2-fluoro-4-((3-methylpyridin-2-yl)methoxy)phenyl)-4-(2-methoxyethoxy)-N-(4-((4-methylpiperazin-1-yl)methyl)phenyl)-7H-pyrrolo[2,3-d]pyrimidin-2-amine]"
3,< 0.03 µM,"CCN1CCN(Cc2ccc(Nc3nc(OCCOC)c4c(-c5ccc(OCc6ccccn6)cc5F)c[nH]c4n3)cc2)CC1 [Compound 19, N-(4-((4-ethylpiperazin-1-yl)methyl)phenyl)-5-(2-fluoro-4-(pyridin-2-ylmethoxy)phenyl)-4-(2-methoxyethoxy)-7H-pyrrolo[2,3-d]pyrimidin-2-amine]"
4,< 0.03 µM,"COCCOc1nc(Nc2ccc(CN3CCC(C)CC3)cc2)nc2[nH]cc(-c3ccc(OCc4ncccn4)cc3F)c12 [Compound 34, 5-(2-fluoro-4-(pyrimidin-2-ylmethoxy)phenyl)-4-(2-methoxyethoxy)-N-(4-((4-methylpiperidin-1-yl)methyl)phenyl)-7H-pyrrolo[2,3-d]pyrimidin-2-amine]"
5,< 0.03 µM,"CCN1CCN(Cc2ccc(Nc3nc(OCCOC)c4c(-c5ccc(OCc6ncccn6)cc5F)c[nH]c4n3)cc2)CC1 [Compound 39, N-(4-((4-ethylpiperazin-1-yl)methyl)phenyl)-5-(2-fluoro-4-(pyrimidin-2-ylmethoxy)phenyl)-4-(2-methoxyethoxy)-7H-pyrrolo[2,3-d]pyrimidin-2-amine]"
6,< 0.03 µM,"CCN1CCN(Cc2ccc(Nc3nc(OC)c4c(-c5ccc(F)cc5F)c[nH]c4n3)cc2)CC1 [Compound 45, 5-(2,4-difluorophenyl)-N-(4-((4-ethylpiperazin-1-yl)methyl)phenyl)-4-methoxy-7H-pyrrolo [2,3-d]pyrimidin-2-amine]"
7,< 0.03 µM,"COCCOc1nc(Nc2ccc(CN3CCN(C)CC3)cc2)nc2[nH]cc(-c3ccc(F)c(Cl)c3)c12 [Compound 50, 5-(3-chloro-4-fluorophenyl)-4-(2-methoxyethoxy)-N-(4-((4-methylpiperazin-1-yl)methyl)phenyl)-7H-pyrrolo[2,3-d]pyrimidin-2-amine]"
8,< 0.03 µM,"COCCOc1nc(Nc2ccc(CN3CCN(C)CC3)cc2)nc2[nH]cc(-c3ccc(F)cc3F)c12 [Compound 53, 5-(2,4-difluorophenyl)-4-(2-methoxyethoxy)-N-(4-((4-methylpiperazin-1-yl)methyl)phenyl)-7H-pyrrolo[2,3-d] pyrimidin-2-amine]"
9,< 0.03 µM,"CCOc1nc(Nc2ccc(CN3CCN(C)CC3)cc2)nc2[nH]cc(-c3ccc(F)cc3F)c12 [Compound 59, 5-(2,4-difluorophenyl)-4-ethoxy-N-(4-((4-methylpiperazin-1-yl)methyl)phenyl)-7H-pyrrolo[2,3-d] pyrimidin-2-amine]"
10,< 0.03 µM,"COCCOc1nc(Nc2ccc(CN3CCN(C)CC3)cc2)nc2[nH]cc(-c3ccc4nc(C)oc4c3)c12 [Compound 64, 4-(2-methoxyethoxy)-5-(2-methylbenzo[d]oxazol-6-yl)-N-(4-((4-methylpiperazin-1-yl)methyl)phenyl)-7H-pyrrolo[2,3-d] pyrimidin-2-amine]"
11,< 0.03 µM,"COCCOc1nc(Nc2ccc(CN3CCN(C)CC3)cc2)nc2[nH]cc(-c3ccc(OCn4ccccc4=O)cc3F)c12 [Compound 68, 1-((3-fluoro-4-(4-(2-methoxyethoxy)-2-((4-((4-methylpiperazin-1-yl)methyl)phenyl)amino)-7H-pyrrolo[2,3-d]pyrimidin-5-yl)phenoxy)methyl) pyridin-2(1H)-one]"
12,< 0.03 µM,"COCCOc1nc(Nc2ccc(CN3CCN(C)CC3)cc2)nc2[nH]cc(-c3ccc(F)cc3)c12 [Compound 85, 5-(4-fluorophenyl)-4-(2-methoxyethoxy)-N-(4-((4-methylpiperazin-1-yl)methyl)phenyl)-7H-pyrrolo[2,3-d]pyrimidin-2-amine]"
13,< 0.03 µM,"COCCOc1nc(Nc2ccc(CN3CCN(C)CC3)cc2)nc2[nH]cc(-c3ccc(S(=O)(=O)N(C)C)cc3F)c12 [Compound 91, 3-fluoro-4-(4-(2-methoxyethoxy)-2-((4-((4-methylpiperazin-1-yl)methyl)phenyl)amino)-7H-pyrrolo[2,3-d]pyrimidin-5-yl)-N,N-dimethylbenzene-sulfonamide]"
